Measurements published in publication PMC5847527, “Identification of a novel 2-oxindole fluorinated derivative as in vivo antitumor agent for prostate cancer acting via AMPK activation” (Scientific Reports, 2018).

How the values were obtained:
Format in all cases: cell-based, human
[1] = tested on: LNCaP cells; test: Cell viability by MTT assay, LNCaP
Experimental: Figure 3 Comparison of the effect of 2-oxindole fluorinated derivatives on the proliferation of human prostate cancer cells. (A) Normal (PTN2 and RWPE-1) and cancer (PC3,DU145 and LNCaP) prostate cells were treated with different doses of the compounds for 24 hours and cell viability was monitored by MTT assay. […] (C) PC-3, DU145 and LNCaP cells were treated with 25 µM of compound 8c for different times. Values were normalized with the control and represent the mean ± SD of at least three independent experiments. *p < 0.05 and **p < 0.01 compared to control by the Student’s - test.
Human prostate cancer epithelial PC-3, DU145 and LNCaP and human prostate normal RWPE-1 cells were purchased from American Type Culture Collection (ATCC CRL-1435 CRL-1740 and CRL 11609 respectively) (Rockville, MD, USA). The human prostate normal PNT2 cell line was purchased to ECACC (European Collection of Cell cultures, Salisbury, SP4 0JG, UK). Cells were routinely grown in RPMI 1640 medium supplemented with 100 IU/ml penicillin G sodium, 100 µg/ml streptomycin sulfate, 0.25 µg/ml amphotericin B (Invitrogen, Paisley, UK) and 10% fetal calf serum. Cells were used at passages between 10–20. For treatment experiments, cells were plated and grown over night, the medium was then replaced with serum-free RPMI 1640 for 24 hours and then incubated with different doses of the compounds for the indicated times.
Cell viability was determined by 3-(4,5-dimethylthiazol-2-yl)-2,5-diphenyltetrazolium bromide (MTT) (Sigma-Aldrich) method. […] The optical density in each well was evaluated by measurement of absorbance at 490 and 650 nm using a microplate reader (ELX 800 Bio-Tek Intruments, INC). IC50 values were calculated using GraphPad Prism vs 6.0 (GraphPad Software, Inc, La Jolla, CA, USA). Cell viability was also determined by counting viable and dead cells by Trypan blue staining. Trypan blue positive and negative cells were counted using a Countess^TM automated cell counter (Invitrogen, Carlsbad, CA, USA). Results were expressed in relation to total number of cells counted.

[2] = tested on: Cyclin D1; test: Cyclin D1 level by Western blot in PC-3 and LNCaP cells
Experimental: Figure 4 Cell Cycle analysis in 8c-treated prostate cancer cells. (A) PC-3 and LNCaP cells were treated with compound 8c for 24 hours and cell cycle analysis was analyzed by flow cytometry using Propidium Iodide (PI). Percentage of cells in subG0, G1, S, and G2/M phases is indicated in the histogram. (B) Levels of Cyclin D1, p-p53, p53, p21 and cleaved Caspase 3 (17 kDa fragment) were determined by Western blot. Upper panel, representative Western blot of two different experiments. β-tubulin (β-Tub) serves as a loading control. Lower panel, the densitometric analyses of bands represented as the mean ± SD of the two different experiments. *p < 0.05 and **p < 0.01 compared with the control group by the Student’s t-test.
There are many intracellular mechanisms whereby AMPK activation inhibits cell growth. […] To further investigate the mechanism underpinning the cell viability inhibitory effect of compound 8c, levels of Cyclin D1 were determined by Western blot in PC-3 and LNCaP cells.
(§1) Cells were lysed in Lysis buffer (50 mM Tris pH 7.4, 0.8 M NaCl, 5 mM MgCl2, 0.1% Triton X-100) containing Protease Inhibitor and Phosphatase inhibitor Cocktails (Roche, Basel, Switzerland). Protein concentrations were measured by BioRad™ protein assay kit (Richmond, CA, USA). […] Films were analyzed by densitometry. […]

[3] = tested on: p53; test: p53 and p-p53 level by Western blot in LNCaP cells
Experimental: Figure 4 Cell Cycle analysis in 8c-treated prostate cancer cells. (A) PC-3 and LNCaP cells were treated with compound 8c for 24 hours and cell cycle analysis was analyzed by flow cytometry using Propidium Iodide (PI). Percentage of cells in subG0, G1, S, and G2/M phases is indicated in the histogram. (B) Levels of Cyclin D1, p-p53, p53, p21 and cleaved Caspase 3 (17 kDa fragment) were determined by Western blot. Upper panel, representative Western blot of two different experiments. β-tubulin (β-Tub) serves as a loading control. […]
Cyclin D1 activity is modulated by several inhibitors such as p21 which negatively regulate cell cycle progression by interacting with cyclin dependent kinases (cdks). […] To further study the role of compound 8c in cell cycle, we determined the expression of p21, p53 and the levels of cleaved caspase 3 in the prostate cells. P53 was only determined in LNCaP cells since PC-3 cells are p53-negative[40].
as §1

[4] = tested on: AMPK; test: AMPK and ACC phosphorylation by Western blot in LNCaP cells; conditions: 25 µM, 1 hour
Experimental: Figure 2 Effect of 2-oxindole fluorinated derivatives on AMPK activity in prostate cancer cells. (A) PC-3, DU145 and LNCaP cells were treated with 25 µM of the selected 2-oxindole fluorinated derivatives for 1 hour. Levels of the phosphorylated AMPK (pAMPK), phosphorylated ACC (pACC) and their total forms were determined by Western blot. Upper panel, a representative Western blot of three different experiments. β-tubulin (β-Tub) serves as a loading control. […] Lower panels, densitometric analyses of bands represented as the mean of the ratio pAMPK/AMPK or pACC/ACC ± SD of three different experiments. *p < 0.05 compared with the controls by one-way ANOVA followed by Fisher’s LSD test; ^#p < 0.05 compared with 2-oxindole fluorinated derivates or with the AMPK activators AMP or A769662 by one-way ANOVA followed by Tukey test.
Similar results were obtained although AMPK stimulation by compound 8c was not so strong (Fig. 2A). […]
as §1

Question: How did the “inhibitory efficacy on cells viability at 50 μM” value ([1]; 50 μM) turn out when O=C1Nc2ccccc2C1(F)Cc1ccc(-c2ccccc2)o1 (centres unmarked) [Compound 8c, 3-fluoro-3-((5-phenylfuran-2-yl)methyl)indolin-2-one] was run?
Answer: 85%

Question: What about the IC50 ([1]; Homo sapiens, MTT, 24 hours) of the same compound?
Answer: 30 µM

Question: And the “Cyclin D1 level” value [2]?
Answer: marked decrease in Cyclin D1 level

Question: What about the “total and phosphorylated p53” value [3] of the same compound?
Answer: increase in the total and phosphorylated forms of p53

Question: What about the “AMPK phosphorylation (pAMPK/AMPK)” value [4] of the same compound?
Answer: notably activated AMPK
